Measured values published in patent US6528528B2 (Warner-Lambert Company, priority 1997, dated 2003).

The compounds below were run against T1, rabbit reticulocyte 15-LO (Oryctolagus cuniculus, UniProt P12530) (assay: Rabbit Reticulocyte 15-LO Assay (h15LO)). Details: 0.25 h; Table 2; @ 10 μM; read-out: h15LO % @ 10 μM.
T1 construct: Fifteen-lipoxygenase was obtained from phenylhydrazine-treated rabbits and purified per the method of Rapoport; from tissue; host or cells: reticulocytes of phenylhydrazine-treated rabbits
T1 sequence (P12530 1-663): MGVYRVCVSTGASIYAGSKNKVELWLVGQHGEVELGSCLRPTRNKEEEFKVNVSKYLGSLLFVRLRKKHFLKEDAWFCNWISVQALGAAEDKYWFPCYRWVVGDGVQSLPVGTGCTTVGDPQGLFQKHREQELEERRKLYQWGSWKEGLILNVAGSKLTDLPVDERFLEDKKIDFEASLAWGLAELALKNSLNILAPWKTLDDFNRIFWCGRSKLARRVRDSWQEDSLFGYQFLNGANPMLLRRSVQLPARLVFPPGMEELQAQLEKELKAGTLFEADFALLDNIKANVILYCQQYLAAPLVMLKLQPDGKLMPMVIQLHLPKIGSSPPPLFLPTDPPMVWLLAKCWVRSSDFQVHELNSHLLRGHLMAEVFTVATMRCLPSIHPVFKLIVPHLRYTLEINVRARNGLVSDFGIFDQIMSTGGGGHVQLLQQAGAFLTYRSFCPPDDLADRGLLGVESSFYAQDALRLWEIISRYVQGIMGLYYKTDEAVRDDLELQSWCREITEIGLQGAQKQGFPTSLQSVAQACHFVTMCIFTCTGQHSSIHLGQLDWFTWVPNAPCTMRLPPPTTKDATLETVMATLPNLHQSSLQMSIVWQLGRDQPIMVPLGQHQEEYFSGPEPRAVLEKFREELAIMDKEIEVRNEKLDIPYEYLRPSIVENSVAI
Format: biochemical
Description: Rabbit Reticulocyte 15-LO Assay (h15LO)
The present 15-LO assay takes advantage of the ability of 15-LO to oxidize the fatty acid linoleic acid to the hydroperoxy fatty acid 13-(S)HPODE, resulting in the formation of a conjugated diene. The 15-LO inhibitors are incubated with 15-LO enzyme in the presence of linoleic acid substrate. The initial reaction is compared to an uninhibited (maximal) reaction to yield % inhibition. […] This prevents artificial nonenzyme lipid peroxidation and product breakdown in the sample. 13-HPODE is quantitated by comparing peak areas of individual samples with those from a standard curve generated using authentic 13-HODE. This assay is performed using 2U of rabbit reticulocyte 15-LO in the presence of 174 μM linoleic acid. The reaction is incubated for 15 minutes at 4° C. The total reaction volume is 100 μL in PBS containing 0.2% Na cholate.
Fifteen-lipoxygenase was obtained from phenylhydrazine-treated rabbits and purified per the method of Rapoport (Rapoport S. M., Schewe T., Wiesner R., et al. The lipoxygenase of reticulocytes. Purification, characterization, and biological dynamics of the lipoxygenase; its identity with the respiratory inhibitors of the reticulocyte. European Journal of Biochemistry, 1979;96:545-561). The following chemicals were purchased and used as received: linoleic acid (NUJCheck Prep), 13-HPODE (Biomol Research Labs), sodium cholate (Sigma), trimethyl phosphite (Fluka Chemicals).

| inhibition at 10 µM | SMILES |
| --- | --- |
| 66% | O=C(Nc1ccccc1)c1cc(NC(=S)Nc2cc(Cl)cc(Cl)c2)ccc1F [Example 101, 5-[3-(3,5-Dichlorophenyl)-thioureido]-2-fluoro-N-phenyl-benzamide] |

Same assay, conditions: Table 2; 2U rabbit reticulocyte 15-LO, 174 μM linoleic acid, 15 minutes at 4° C.

| SMILES | IC50 |
| --- | --- |
| COc1ccc(NC(=O)Nc2ccc(Cl)c(Cl)c2)cc1NC(=S)Nc1cc(Cl)cc(Cl)c1 [Example 171, 1-(3,4-Dichloro-phenyl)-3-{3-[3-(3,5-dichloro-phenyl)-thioureido]-4-methoxy-phenyl}-urea] | 275 nM |
| COc1ccc(C(=O)Nc2ccccc2)cc1Nc1cccc(C(F)(F)F)c1 [Example 30, 3-(3-Trifluoromethyl-phenylamino)-4-methoxy-N-phenyl-benzamide] | 10 nM |
| COc1ccc(C(=O)Nc2ccc(F)c(F)c2)cc1NS(=O)(=O)c1cc(Cl)cc(Cl)c1 [Example 116, 3-(3,5-Dichloro-benzenesulfonylamino)-4-methoxy-N-(3,4-difluorophenyl)-benzamide] | 20 nM |
| COc1ccc(C(=O)Nc2ccccc2)cc1NS(=O)(=O)C(C)C [Example 182, 3-(1-Methylethyl-1-sulfonylamino)-4-methoxy-N-phenyl-benzamide] | 232 nM |
| O=C(Nc1ccccc1)c1ccc(O)c(Nc2ccccc2)c1 [Example 145, 4-Hydroxy-3-phenylamino-N-phenyl-benzamide] | 180 nM |
| COc1ccc(NC(=O)c2ccc(F)c(F)c2)cc1NC(=S)Nc1ccc(C(=O)O)cc1 [Example 168, 4-{3-[5-(3,4-Difluoro-benzoylamino)-2-methoxy-phenyl]-thioureido}-benzoic Acid acid] | 109 nM |
| COc1ccc(C(=O)Nc2ccccc2)cc1NS(=O)(=O)c1ccc(C(=O)O)cc1 [Example 183, 4-(2-Methoxy-5-phenylcarbamoyl-phenylsulfamoyl)-benzoic Acid] | 293 nM |
| COc1ccc(NC(=O)c2ccc(F)c(F)c2)cc1N [Example 150, 3,4-Difluoro-N-(3-amino-4-methoxy-phenyl)-benzamide] | 205 nM |

Other lines, results leading:

| IC50 | SMILES |
| --- | --- |
| 302 nM | COc1ccc(C(=O)Nc2ccccc2)cc1NCc1ccc2c(c1)OCCO2 [Example 271] |
| 69 nM | COc1ccc(C(=O)Nc2ccc(F)c(F)c2)cc1NCc1cccc(F)c1 [Example 212, 3-(3-Fluoro-benzylamino)-4-methoxy-N-(3,4-difluoro-phenyl)-benzamide] |
| 385 nM | COc1ccc(C(=O)Nc2ccccc2)cc1NCc1cccc(C)c1 [Example 273, 4-Methoxy-3-(3-methyl-benzylamino)-N-phenyl-benzamide] |

Same assay, conditions: Table 2; concentration not given

| SMILES | h15LO, value given as bare % |
| --- | --- |
| COc1ccc(C(=O)Nc2ccc(F)c(F)c2)cc1NS(=O)(=O)c1ccc([N+](=O)[O-])cc1 [Example 186, 4-Methoxy-3-(4-nitro-benzenesulfonylamino)-N-(3,4-difluoro-phenyl)-benzamide] | 99.35% |
| COC(=O)c1cccc(NC(=O)c2ccc(OC)c(Nc3cccc(C(F)(F)F)c3)c2)c1 [Example 156, 3-[4-Methoxy-3-(3-trifluoromethyl-phenylamino)-benzoylamino]-benzoic Acid Methyl Ester] | 90.33% |
| COc1ccc(NC(=O)Nc2ccc(Cl)c(Cl)c2)cc1N [Example 152, 1-(3-Amino-4-methoxy-phenyl)-3-(3,4-dichloro-phenyl)-urea] | 57.49% |
| O=C(Nc1ccccc1)c1ccc(OC(F)(F)F)c(Nc2cccc(C(F)(F)F)c2)c1 [Example 158, 4-Trifluoromethoxy-3-(3-trifluoromethyl-phenylamino)-N-phenyl-benzamide] | 48.28% |
| COc1ccc(NC(=O)Nc2ccc(Cl)c(Cl)c2)cc1NC(=S)Nc1cccc(C(=O)O)c1 [Example 173, 3-(3-{5-[3-(3,4-Dichloro-phenyl}-ureido]-2-methoxy-phenyl)-thioureido)-benzoic Acid] | 55% |
| COc1ccc(C(=O)Nc2ccc(F)cc2)cc1Nc1cc(Cl)cc(Cl)c1 [Example 154] | 97.66% |
| Nc1cc(C(=O)Nc2ccccc2)ccc1OC(F)(F)F [Example 147, 3-Amino-4-trifluoromethoxy-N-phenyl-benzamide] | 37.05% |

Other lines, results leading:

| h15LO, value given as bare % | SMILES |
| --- | --- |
| 94.51% | COc1ccc(C(=O)Nc2ccc(F)cc2)cc1NS(=O)(=O)c1ccc(C#N)cc1 [Example 193, 3-(4-Cyano-benzenesulfonylamino)-4-methoxy-N-(4-fluoro-phenyl)-benzamide] |
| 98.57% | COc1ccc(C(=O)Nc2ccc(Cl)c(Cl)c2)cc1NCc1cccs1 [Example 261, 4-Methoxy-3-[(thiophen-2-ylmethyl)-amino]-N-(3,4-dichloro-phenyl)-benzamide] |
| 86.96% | COc1ccc(NC(=O)c2ccc(F)c(F)c2)cc1NS(=O)(=O)c1cccc(C#N)c1 [Example 205, 3,4-Difluoro-N-[3-(3-cyano-benzenesulfonylamino)-4-methoxy-phenyl]-benzamide] |
| 93.97% | COc1ccc(NC(=O)c2ccc(F)c(F)c2)cc1NS(=O)(=O)CCl [Example 201, 3,4-Difluoro-N-[4-methoxy-3-(chloromethyl-sulfonylamino)-phenyl]. benzamide] |
| 96.99% | COc1ccc(C(=O)Nc2ccc(F)cc2)cc1NS(=O)(=O)c1ccc([N+](=O)[O-])cc1 [Example 191, 4-Methoxy-3-(4-nitro-benzenesulfonylamino)-N-(4-fluoro-phenyl)-benzamide] |
| 92.70% | COc1ccc(C(=O)Nc2ccccc2)cc1NCc1cccc(C#N)c1 [Example 229, 3-(3-Cyano-benzylamino)-4-methoxy-N-phenyl-benzamide] |
| 97.05% | COc1ccc(C(=O)Nc2ccc(F)cc2)cc1NS(=O)(=O)c1cccc([N+](=O)[O-])c1 [Example 190, 4-Methoxy-3-(3-nitro-benzenesulfonylamino)-N-(4-fluoro-phenyl)-benzamide] |
| 97.77% | COc1ccc(NC(=O)c2ccc(F)c(F)c2)cc1NS(=O)(=O)c1cccc(N)c1 [Example 198, 3,4-Difluoro-N-[4-methoxy-3-(3-amino-benzenesulfonylamino)-phenyl]-benzamide] |
| 95.56% | COc1ccc(C(=O)Nc2ccccc2)cc1NS(=O)(=O)c1ccc(C#N)cc1 [Example 192, 3-(4-Cyano-benzenesulfonylamino)-4-methoxy-N -phenyl-benzamide] |
| 67.26% | CCCOc1ccc(CNc2cc(C(=O)Nc3ccccc3)ccc2OC)cc1 [Example 235, 4-Methoxy-3-(4-propoxy-benzylamino)-N-phenyl-benzamide] |
| 53.51% | CCOC(=O)c1cccc(NC(=O)c2ccc(OC)c(NCc3cccs3)c2)c1 [Example 263, 3-{4-Methoxy-3-[(thiophen-2-ylmethyl)-amino]-benzoylamino}-benzoic Acid Ethyl Ester] |
| 92.92% | COc1ccc(C(=O)Nc2ccccc2)cc1NCc1ccc([N+](=O)[O-])c(O)c1 [Example 228, 3-(3-Hydroxy-4-nitro-benzylamino)-4-methoxy-N-phenyl-benzamide] |
| 56.33% | COc1ccc(C(=O)Nc2ccccc2)cc1NCc1cccc(C(=O)O)c1 [Example 241, 3-[(2-Methoxy-5-phenylcarbamoyl-phenylamino)-methyl]-benzoic Acid] |
| 96.92% | CCCCCCCCCCCCS(=O)(=O)Nc1cc(NC(=O)c2ccc(F)c(F)c2)ccc1OC [Example 200, 3,4-Difluoro-N-[4-methoxy-3-(1-dodecane-sulfonylamino)-phenyl]-benzamide] |
| 89.54% | COc1ccc(NC(=O)c2ccc(F)c(F)c2)cc1NS(=O)(=O)c1ccc(C#N)cc1 [Example 204, 3,4-Difluoro-N-[3-(4-cyano-benzenesulfonylamino)-4-methoxy-phenyl]-benzamide] |
| 73.46% | COc1ccc(C(=O)Nc2ccccc2)cc1NCc1ccc(C#N)cc1 [Example 233, 3-(4-Cyano-benzylamino)-4-methoxy-N-phenyl-benzamide] |
